Measurements reported in ChEMBL document CHEMBL1201862, “PubChem BioAssay data set” (2004).
Calls of active or inactive are those of the source.

Experiments:
Prothrombin = Prothrombin (Bos taurus, UniProt P00735); assay: thrombin protease inhibitors – biochemical, fluorescence polarization, uHTS hits, dose response (AID 602369); format: functional
[1] = molecular target: T1, Zinc finger protein mex-5 (Caenorhabditis elegans, UniProt Q9XUB2); assay: potency of MEX-5 RNA-binding blockers – biochemical, C. elegans, fluorescence polarization, dose response (AID 1960)
T1 sequence (Q9XUB2 whole entry): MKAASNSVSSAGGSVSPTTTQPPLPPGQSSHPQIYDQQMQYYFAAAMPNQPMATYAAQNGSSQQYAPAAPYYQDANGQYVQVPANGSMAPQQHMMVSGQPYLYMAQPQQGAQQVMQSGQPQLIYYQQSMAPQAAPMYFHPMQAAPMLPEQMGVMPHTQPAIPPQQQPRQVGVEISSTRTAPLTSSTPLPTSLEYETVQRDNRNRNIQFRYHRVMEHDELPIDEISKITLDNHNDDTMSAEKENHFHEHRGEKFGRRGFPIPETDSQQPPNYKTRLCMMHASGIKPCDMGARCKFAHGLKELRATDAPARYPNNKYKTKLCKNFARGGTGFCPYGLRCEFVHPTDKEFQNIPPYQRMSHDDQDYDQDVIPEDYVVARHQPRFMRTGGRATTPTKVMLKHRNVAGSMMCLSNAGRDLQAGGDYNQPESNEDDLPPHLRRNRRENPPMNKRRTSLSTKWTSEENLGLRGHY

[2] = molecular target: 26S proteasome non-ATPase regulatory subunit 14 (Homo sapiens, UniProt O00487); assay: inhibition of proteasome subunit RPN11 – biochemical, fluorescence polarization, uHTS hits, confirmation (AID 602368); format: functional
Chain of 26S proteasome non-ATPase regulatory subunit 14 (O00487 whole entry): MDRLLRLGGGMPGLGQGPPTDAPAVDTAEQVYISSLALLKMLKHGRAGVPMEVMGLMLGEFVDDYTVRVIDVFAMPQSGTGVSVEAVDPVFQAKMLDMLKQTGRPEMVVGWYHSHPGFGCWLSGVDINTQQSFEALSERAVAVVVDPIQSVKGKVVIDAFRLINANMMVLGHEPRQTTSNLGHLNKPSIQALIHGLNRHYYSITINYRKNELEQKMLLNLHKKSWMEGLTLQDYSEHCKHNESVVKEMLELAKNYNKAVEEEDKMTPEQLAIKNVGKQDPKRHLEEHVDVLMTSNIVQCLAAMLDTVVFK

[3] = molecular target: 72 kDa type IV collagenase (Homo sapiens, UniProt P08253); assay: Dose Response validation of uHTS RPN11 inhibitor hits using a MMP-2 Fluorescence assay.; format: functional
Chain of 72 kDa type IV collagenase (P08253 whole entry, the tested form may be a part): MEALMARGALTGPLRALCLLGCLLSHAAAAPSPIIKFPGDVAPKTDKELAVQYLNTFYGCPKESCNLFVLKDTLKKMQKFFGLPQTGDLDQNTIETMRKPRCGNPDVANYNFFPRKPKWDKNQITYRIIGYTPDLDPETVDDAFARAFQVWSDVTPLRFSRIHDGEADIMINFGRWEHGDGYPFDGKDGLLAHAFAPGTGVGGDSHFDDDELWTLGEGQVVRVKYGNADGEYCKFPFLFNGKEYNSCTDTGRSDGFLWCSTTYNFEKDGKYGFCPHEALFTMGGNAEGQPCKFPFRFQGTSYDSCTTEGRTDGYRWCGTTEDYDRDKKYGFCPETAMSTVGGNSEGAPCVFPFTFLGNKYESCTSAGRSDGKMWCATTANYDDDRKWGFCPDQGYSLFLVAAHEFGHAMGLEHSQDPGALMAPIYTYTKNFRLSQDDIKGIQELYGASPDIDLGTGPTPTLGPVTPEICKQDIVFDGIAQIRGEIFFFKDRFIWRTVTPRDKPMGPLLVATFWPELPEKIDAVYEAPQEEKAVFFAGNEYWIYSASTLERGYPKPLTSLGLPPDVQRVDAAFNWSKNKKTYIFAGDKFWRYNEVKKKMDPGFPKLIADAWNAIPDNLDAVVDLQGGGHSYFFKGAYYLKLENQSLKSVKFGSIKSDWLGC

[4] = molecular target: T2, RNA-binding protein pos-1 (Caenorhabditis elegans, UniProt G5EF15); assay: disruptors of C. elegans POS-1 RNA interaction – biochemical, fluorescence polarization, dose response (AID 1964);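 note: purified POS-1 fused to maltose binding protein made in E. coli; potency of compounds blocking POS-1 binding to fluorescent RNA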
T2 sequence (G5EF15 whole entry): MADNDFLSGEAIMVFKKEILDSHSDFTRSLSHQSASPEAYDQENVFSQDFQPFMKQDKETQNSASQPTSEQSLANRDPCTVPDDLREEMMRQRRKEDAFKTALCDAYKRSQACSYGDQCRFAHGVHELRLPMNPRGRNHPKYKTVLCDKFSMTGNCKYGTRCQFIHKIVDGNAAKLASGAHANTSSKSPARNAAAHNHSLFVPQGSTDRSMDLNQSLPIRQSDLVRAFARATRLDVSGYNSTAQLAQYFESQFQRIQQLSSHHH

[5] = Luminescence Cell-Based Dose Retest to Confirm Inhibitors of Cancer Stem Cells. [Related pubchem assays (depositor defined):AID2717, AID2721]; format: functional; conditions: Homo sapiens
[6] = viability loss in THP-1 monocytes – THP-1 cells, cytotoxicity control for Vif-APOBEC3G degradation inhibitor project, dose response (AID 1117359); format: functional; conditions: THP-1
[7] = viability loss of HMLE_sh_eGFP cells – cell-based, luminescence, counter-screen for HMLE_sh_ECad selective toxicity project, dose response (AID 463074); format: functional, Homo sapiens;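 note: HMLE human mammary epithelial cells expressing control shRNA against eGFP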
[8] = HIV-1 Vif–A3G interaction blockers – biochemical, TR-FRET, GST-Vif 1-94, biotin-A3G peptide, dose response retest, primary screen (AID 1117319); format: functional;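 note: TR-FRET signal of purified GST-Vif binding a biotinylated A3G peptide; inhibitors lower the FRET signal by blocking Vif and A3G binding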
[9] = Dd2 parasite growth inhibition in erythrocytes – SYBR Green, dry powder samples, set 9, dose response (AID 1159568); format: functional, cell-based
[10] = Luminescence Cell-Based Dose Response HTS to Identify Activators of Luciferase Translation or Activity in H4 […] Cells. [Related pubchem assays: 1829 (Project Summary), 1814 (Primary HTS)]; format: functional
[11] = Luminescence Cell-Based Dose Response to Identify Activators of Luciferase Translation or Activity in H4-C Neuroglioblastoma Cells. [Related pubchem assays: 1829 (Project Summary), 1814 (Primary HTS)]; format: functional
H4 = assay: Luminescence Cell-Based Dose Response HTS to Identify Activators of 5'UTR Stem-Loop Driven Prion Protein mRNA Translation in H4 Neuroglioblastoma Cells. [Related pubchem assays: 1829 (Project Summary), 1814 (Primary HTS)]; format: functional; conditions: Homo sapiens
[12] = Luminescence Cell-Based Dose Confirmation to Identify Activators of 5'UTR Stem-Loop Driven Alpha-Synuclein mRNA Translation in H4 Neuroglioblastoma Cells. [Related pubchem assays: 1829 (Project Summary), 1814 (Primary HTS)]; format: functional
[13] = Luminescence Cell-Based Dose Response to Identify Activators of 5'UTR Stem-Loop Driven Prion Protein mRNA Translation in H4-C Neuroglioblastoma Cells. [Related pubchem assays: 1829 (Project Summary), 1814 (Primary HTS)]; format: functional
[14] = Reduced DLD-1 viability, concentration-response, CellTiter-Glo luminescence (AID 1117352); format: functional
[15] = cytotoxicity toward HT-29 cells – cell-based, CellTiter-Glo luminescence, IC50, dose response (AID 1117330); format: functional
[16] = cytotoxicity toward Colo320 cells – cell-based, CellTiter-Glo luminescence, IC50, dose response (AID 1117334); format: functional; conditions: COLO 320
[17] = SNU-C1 cell viability reduction, dose response, CellTiter-Glo luminescence (AID 1117323); format: functional, cell-based
[18] = rise of 4N DNA cells, HeLa – IC50, dose response (AID 1117351); format: functional, cell-based
[19] = CellTiter-Glo luminescence survival assay, SW480 colon tumor line, concentration-response curve, half-maximal inhibitory concentration (AID 1117338); format: functional
[20] = rise of 2N DNA cells, HeLa – IC50, dose response (AID 1117349); format: functional, cell-based
[21] = RKO cell viability reduction, dose response, CellTiter-Glo luminescence (AID 1117322); format: functional
[22] = OVCAR-3 cell viability loss – plate reader, dry powder samples, PAX8 inhibitor project, dose response (AID 743044); format: functional, cell-based
Paired box protein Pax-8 = Paired box protein Pax-8 (Homo sapiens, UniProt Q06710); assay: PAX8 transcriptional activity inhibition in RMG-I – RMG-I cells, luciferase, cherry-pick, dose response (AID 687027); format: functional, cell-based;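 note: luciferase reporter driven by Pax8 target thyroperoxidase promoter measured by SteadyGlo luminescence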
Chain of Paired box protein Pax-8 (Q06710 whole entry): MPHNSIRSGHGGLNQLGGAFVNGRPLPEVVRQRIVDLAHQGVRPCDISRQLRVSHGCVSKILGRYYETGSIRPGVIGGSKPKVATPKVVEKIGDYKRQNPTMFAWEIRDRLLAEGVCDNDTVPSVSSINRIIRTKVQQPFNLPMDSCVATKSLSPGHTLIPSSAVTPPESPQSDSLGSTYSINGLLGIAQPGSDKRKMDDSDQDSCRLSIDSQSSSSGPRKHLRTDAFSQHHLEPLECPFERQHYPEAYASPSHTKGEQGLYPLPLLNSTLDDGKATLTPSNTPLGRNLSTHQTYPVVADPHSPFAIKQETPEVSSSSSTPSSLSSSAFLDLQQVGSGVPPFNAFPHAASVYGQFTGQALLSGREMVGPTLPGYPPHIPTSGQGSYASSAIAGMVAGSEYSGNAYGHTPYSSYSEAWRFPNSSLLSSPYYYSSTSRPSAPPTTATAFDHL

[23] = OVCAR8 cell viability loss – plate reader, dry powder samples, PAX8 project, dose response (AID 743197); format: functional, cell-based; conditions: OVCAR-8
[24] = molecular target: T3, Tyrosine-protein phosphatase non-receptor type 7 (Homo sapiens, UniProt P35236); assay: HePTP tyrosine phosphatase activity blockers – biochemical, absorbance, leukemia target, primary screen (AID 521); format: functional
T3 sequence (P35236 whole entry): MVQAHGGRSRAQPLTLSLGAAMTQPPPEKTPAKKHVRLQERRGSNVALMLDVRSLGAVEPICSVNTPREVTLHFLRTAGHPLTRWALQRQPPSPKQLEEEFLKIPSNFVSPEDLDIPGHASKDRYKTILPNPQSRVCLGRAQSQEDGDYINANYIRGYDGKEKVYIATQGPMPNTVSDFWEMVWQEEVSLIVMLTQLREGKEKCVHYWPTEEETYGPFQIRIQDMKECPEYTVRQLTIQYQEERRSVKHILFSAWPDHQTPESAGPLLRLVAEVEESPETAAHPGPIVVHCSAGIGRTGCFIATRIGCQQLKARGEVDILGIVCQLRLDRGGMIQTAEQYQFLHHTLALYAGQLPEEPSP

In the case of `CCOc1ccccc1N1C(=O)NC(=O)/C(=C\Nc2ccc(N(CC)CC)cc2)C1=O`, the IC50 (Prothrombin) is reported as 13.4 µM (active), the EC50 [1] is reported as > 300 µM (inconclusive) and the IC50 [2] is reported as 18.3 µM (active). The IC50 [3] was > 100 µM (inactive), the EC50 [4] was > 300 µM (not active) and the AC50 [5] was 40.9 µM (active). For the same compound, the CC50 [6] was 26 µM (active), the AC50 [7] was 51 µM (active) and the IC50 [8] was > 57.5 µM (active).
For `O=C(C[C@@H]1C[C@H]2c3cc(NC(=O)c4ccc5c(c4)OCO5)ccc3O[C@H]2[C@H](CO)O1)NCc1ccc(Oc2ccccc2)cc1`, the AC50 [9] was 25.6 µM (active).
In the case of `COc1cc(NC(=O)c2cc3nc(C)cc(C)n3n2)c(OC)cc1Cl`, the EC50 [10] is reported as 0.278 µM (active), the EC50 [11] is reported as 0.323 µM (active) and the EC50 (H4) is reported as < 0.1 µM (active). The EC50 [12] was 0.392 µM (active) and the EC50 [13] was 0.389 µM (active).
For `O=c1[nH]cc(F)c(=O)[nH]1` [FLUOROURACIL], the IC50 [14] was > 20 µM (inactive), the IC50 [15] was > 20 µM (inactive) and the IC50 [16] was > 20 µM (inactive). The IC50 [17] was > 20 µM (inactive), the IC50 [18] was > 10 µM (inactive) and the IC50 [19] was > 20 µM (inactive). The IC50 [20] was > 10 µM (inactive) and the IC50 [21] was > 20 µM (inactive).
With `CCOC(=O)c1s/c(=N\C(=O)/C=C/c2cccs2)n(C)c1C` the EC50 [10] was < 0.1 µM (inconclusive), the EC50 [11] was > 12 µM (not active) and the EC50 (H4) was 1.08 µM (active). For the same compound, the EC50 [12] was 0.315 µM (active) and the EC50 [13] was 2.23 µM (active).
For `C[C@@H]1CN([C@H](C)CO)C(=O)c2cc(NC(=O)Nc3ccc(F)cc3)ccc2O[C@@H](C)CCCCO[C@H]1CN(C)C(=O)Nc1ccc(C(F)(F)F)cc1`, the AC50 [22] was 35 µM (active), the AC50 (Paired box protein Pax-8) was 5.23 µM (active) and the AC50 [23] was 39.3 µM (active).
In the case of `COc1ccccc1N1CCN(S(=O)(=O)c2c[nH]cn2)CC1`, the IC50 [24] is reported as > 100 µM (not active).
